Laboratory results as given in patent US9068958B1, “Use of surface free energy for differential evaluation of crystal, crystal evaluated on basis of surface free energy as index, and pharmaceutical composition prepared by containing the crystal” (POLA PHARMA INC., priority 2012, dated 2015).

Key:
[1] = Surface free energy of crystal by liquid penetration rate measurement (contact angle, Owens-Wendt-Rabel-Kaelble method); assay type: physicochemical; settings: crystal powder; for γS^d, dispersion component of surface free energy / γS^p, polar component of surface free energy: solvents n-hexane, tetrachloromethane, benzene, 1-nitropropane, water; for γS, surface free energy: sum of dispersion and polar component
Description: The measurement of the surface free energy of the crystal may be performed in accordance with an ordinary method. For example, the contact angle with respect to the crystal is measured by means of the liquid penetration (permeation) rate measurement (machine type of apparatus: Processor Tensiometer K12, manufacturer: KRUSS GmbH) by using several solvents for which the surface free energy, the dispersion component of the surface free energy, and the polar component of the surface free energy are already known, and thus it is possible to perform the calculation therefrom by applying the model of Owens, Wendt, Rabel, and Kaelble. Preferred solvents for measurement in this method can be appropriately exemplified, for example, by n-hexane, […], benzene, nitrobenzene, 1-nitropropane, and water. As for the method as described above, it is possible to make reference, for example, to a method described in Japanese Patent Application Laid-open No. 2010-183064.
In relation to the surface free energy, the contact angle θ is calculated in accordance with the Washburn's equation from the penetration (permeation) rate of liquid into powder obtained by the liquid penetration (permeation) rate measurement (machine type of apparatus: Processor Tensiometer K12, manufacturer: KRUSS GmbH). The penetration (permeation) rate of the liquid in the chamber into the powder is measured by using a chamber tube shown in FIG. 4. […] Washburn's equation is represented by the following equation 1.
If this equation is converted into the weight of the solvent permeated into the powder per unit time, the following equation 2 is presented.
The contact angle θ is determined by measuring the penetration (permeation) rate by using a solvent for which the surface tension (γL), the density (ρ), and the viscosity (η) of the liquid are known. The polar component and the dispersion component of the surface free energy are calculated in accordance with the Owens-Wendt-Rabel-Kaelble method by using θ thus determined. That is, assuming that the surface free energy is composed of the non-polar dispersion component γ^d and the polar component γ^p, the following equations are presented. γS=γS^d+γS^p γL=γLd+γLp γSL=γS+γL−2√{square root over (yS^d·γL^d)}−2√{square root over (γS^p·γL^p)} Equation 3
If Young's equation, which holds among the surface tension of the liquid, the surface tension of the solid, and the solid-liquid interfacial tension, is substituted with the above, the following equation is obtained.
The contact angle θ is determined, and plotted by using several types of solvents having known γL, γL^d, γL^p, and thus it is possible to determine γS^p from the slope and γs^d from the intercept. n-Hexane, tetrachloromethane, benzene, 1-nitropropane, and water were used as the known solvents.
By utilizing the above, the surface free energy, the dispersion component of the surface free energy, the polar component of the surface free energy, and the ratio (%) of the polar component with respect to the surface free energy were calculated for samples (specimens) manufactured by the following methods.

[2] = Storage testing under severely stressed condition of crystals suspended in water, isomer formation by HPLC; assay type: physicochemical; settings: light 6000 1×, 80° C., 6 hours, ratio to charging amount of luliconazole
Description: The storage testing under severely stressed condition was performed for Crystals 1 to 4. That is, each of the samples was suspended in water (infiltration condition or humidified condition), which was exposed to light at 6000 1× at 80° C. for 6 hours, followed by being collected by filtration and dried. After that, the ratio of the Z isomer of luliconazole with respect to the charging amount of luliconazole was measured and calculated. The measurement was performed by means of HPLC. The HPLC condition was as follows.
Column: CHIRALCEL OD-RH 4.6×150 mm, column temperature: 35° C., mobile phase: mixture solution of methanol/1.8% aqueous solution of potassium hexafluorophosphate (83:17, v/v), flow rate: 0.56 mL/min., detection: 295 nm.
As for the SE isomer, the storage testing under severely stressed testing was performed for the crystal in the same manner as the Z isomer. As a result, any difference was not observed in relation to the amount of formation depending on the difference in the crystal. That is, the tendency of the SE isomer was not observed for the crystal itself.

In the case of N#C/C(=C1/SC[C@@H](c2ccc(Cl)cc2Cl)S1)n1ccnc1 [Crystal 1, Luliconazole], the “γS^p/γS, ratio of polar component of surface free energy” value (“γS^p/γS, ratio … of surface free energy” below) ([1]; listed as 1) is reported as 44%, the “γS^d, dispersion component of surface free energy” value ([1]; listed as 1) is reported as 16.1 mJ/m^2 and the “γS^p, polar component of surface free energy” value ([1]; listed as 1) is reported as 12.7 mJ/m^2. The “γS, surface free energy” value ([1]; listed as 1) was 28.8 mJ/m^2 and the “Amount of formation of Z isomer (%) under condition of suspension in water and exposure to light” value (shortened to “Amount of formation of Z isomer (%)”) ([2]; listed as 1) was 0.11%.
In the case of N#C/C(=C1/SC[C@@H](c2ccc(Cl)cc2Cl)S1)n1ccnc1 [Crystal 2, Luliconazole], the “γS^p/γS, ratio … of surface free energy” value ([1]; listed as 2) is reported as 29%, the “γS^d, dispersion component of surface free energy” value ([1]; listed as 2) is reported as 19.5 mJ/m^2 and the “γS^p, polar component of surface free energy” value ([1]; listed as 2) is reported as 7.9 mJ/m^2. For the same molecule, the “γS, surface free energy” value ([1]; listed as 2) was 27.4 mJ/m^2 and the “Amount of formation of Z isomer (%)” value ([2]; listed as 2) was 0.08%.
For N#C/C(=C1/SC[C@@H](c2ccc(Cl)cc2Cl)S1)n1ccnc1 [Crystal 3, Luliconazole], the “γS^p/γS, ratio … of surface free energy” value ([1]; listed as 3) was 31%, the “γS^d, dispersion component of surface free energy” value ([1]; listed as 3) was 18.4 mJ/m^2 and the “γS^p, polar component of surface free energy” value ([1]; listed as 3) was 8.2 mJ/m^2. For the same molecule, the “γS, surface free energy” value ([1]; listed as 3) was 26.6 mJ/m^2 and the “Amount of formation of Z isomer (%)” value ([2]; listed as 3) was 0.07%.
With N#C/C(=C1/SC[C@@H](c2ccc(Cl)cc2Cl)S1)n1ccnc1 [Crystal 4, Luliconazole] the “γS^p/γS, ratio … of surface free energy” value ([1]; listed as 4) was 20%, the “γS^d, dispersion component of surface free energy” value ([1]; listed as 4) was 20.3 mJ/m^2 and the “γS^p, polar component of surface free energy” value ([1]; listed as 4) was 5.2 mJ/m^2. For the same molecule, the “γS, surface free energy” value ([1]; listed as 4) was 25.5 mJ/m^2 and the “Amount of formation of Z isomer (%)” value ([2]; listed as 4) was 0.07%.
